The values below come from PubChem BioAssay (NCI).

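How tested: cells in 96-well plates exposed to compound for 48 hours at five concentrations. The concentration for 50% growth inhibition is given as GI50. The concentration for full growth arrest is given as TGI.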

Test systems include HCT-116 colon; OVCAR-4 ovarian; NCI-H23 lung; DU-145 prostate; SNB-75 CNS; NCI-H226 lung; MCF7 breast; SK-MEL-28 melanoma; MOLT-4 leukemia; HOP-92 NSCLC.
Assay in all cases: inhibition of tumour cell growth, NCI panel, 48 h

On to `CCOC(=O)C1CCC/C1=N\N=C(N)N` (stereo not drawn) (tested in a mixture with another compound), for which the TGI with HCT-116 colon, in the assay on OVCAR-4 ovarian, in the assay with NCI-H23 lung, with DU-145 prostate, in the assay on SNB-75 CNS and in the assay with NCI-H226 lung was more than 100 µM each time. The TGI with MCF7 breast, in the assay with SK-MEL-28 melanoma and in the assay on MOLT-4 leukemia was more than 100 µM each time.
Regarding `CC1(C)CCSC(/C=C/c2ccccc2)=N1`, the TGI with HCT-116 colon was 26.7 µM; in the assay on OVCAR-4 ovarian, 32.5 µM; in the assay with NCI-H23 lung, 33.9 µM; with DU-145 prostate, more than 100 µM; with MCF7 breast it was 27.6 µM; in the assay on SK-MEL-28 melanoma, 43 µM. The TGI with MOLT-4 leukemia was more than 100 µM; in the assay with HOP-92 NSCLC, 35.9 µM.
As for `[N-]=[N+]=Nc1ncc(-c2ccc(C(F)(F)F)cc2)c(NC2CCCCCC2)n1`, the GI50 with HCT-116 colon, in the assay on OVCAR-4 ovarian, in the assay with NCI-H23 lung, with DU-145 prostate, with SNB-75 CNS and with NCI-H226 lung was more than 10 µM each time. Also, the GI50 with MCF7 breast, with SK-MEL-28 melanoma and with MOLT-4 leukemia was more than 10 µM throughout. For the same molecule, the TGI in the assay on HCT-116 colon, with OVCAR-4 ovarian, in the assay on NCI-H23 lung, with DU-145 prostate, with SNB-75 CNS and in the assay on NCI-H226 lung was more than 10 µM in each case. For the same molecule, the TGI in the assay on MCF7 breast, in the assay on SK-MEL-28 melanoma and in the assay on MOLT-4 leukemia was more than 10 µM each time.
As for `CC1(C)OC2C(CO)OC(n3ccc(=O)[nH]c3=O)C2O1` (stereo not drawn), the TGI with HCT-116 colon, with NCI-H23 lung, in the assay with DU-145 prostate, with NCI-H226 lung, in the assay on MCF7 breast and with SK-MEL-28 melanoma was more than 100 µM each time. Also, the TGI in the assay with MOLT-4 leukemia and in the assay on HOP-92 NSCLC was more than 100 µM in each case.
With `C#Cc1cccc(NC(=O)Nc2ccc(NC(=O)CCl)cc2)c1`, the GI50 in the assay with HCT-116 colon was 20.1 µM; in the assay with OVCAR-4 ovarian, 12.2 µM; with NCI-H23 lung, 15.4 µM; in the assay on DU-145 prostate, 32.7 µM; in the assay with SNB-75 CNS, 8.39 µM; in the assay on NCI-H226 lung, 22.4 µM. In addition, the GI50 was 27.8 µM with MCF7 breast, more than 82.5 µM with SK-MEL-28 melanoma and 9.6 µM in the assay on MOLT-4 leukemia. Further, the TGI was more than 82.5 µM in the assay with HCT-116 colon; 28.6 µM with OVCAR-4 ovarian; 36 µM in the assay on NCI-H23 lung; more than 82.5 µM in the assay on DU-145 prostate; 19.1 µM in the assay on SNB-75 CNS; 73.9 µM in the assay on NCI-H226 lung. For the same molecule, the TGI was more than 82.5 µM in the assay with MCF7 breast, more than 82.5 µM in the assay with SK-MEL-28 melanoma and 33.2 µM with MOLT-4 leukemia.
For `Cc1c(C(=O)/C=C/c2ccc(O)cc2)nnn1-c1ccnc2c(C(F)(F)F)cccc12`, the GI50 is 6.66 µM with HCT-116 colon; 15.2 µM with NCI-H23 lung; 30.1 µM with DU-145 prostate; 8.81 µM in the assay on SNB-75 CNS; 27.3 µM with NCI-H226 lung; 23.5 µM in the assay on MCF7 breast. The GI50 in the assay with SK-MEL-28 melanoma is 51.8 µM; in the assay on MOLT-4 leukemia, 5.06 µM; in the assay with HOP-92 NSCLC it was 34.5 µM. Further, the TGI was more than 100 µM with HCT-116 colon; more than 100 µM in the assay with NCI-H23 lung; more than 100 µM with DU-145 prostate; 68.2 µM with SNB-75 CNS; more than 100 µM with NCI-H226 lung; more than 100 µM with MCF7 breast. The TGI is more than 100 µM in the assay with SK-MEL-28 melanoma, 30.6 µM in the assay with MOLT-4 leukemia and more than 100 µM in the assay with HOP-92 NSCLC.
In the case of `C=CCOc1cc2c(cc1C(C)c1ccc(OC)cc1)OCO2` (stereo not drawn), the TGI in the assay on HCT-116 colon was more than 47.9 µM; in the assay with OVCAR-4 ovarian, more than 100 µM; in the assay on NCI-H23 lung it was more than 100 µM; in the assay on DU-145 prostate it was more than 100 µM; in the assay on SNB-75 CNS, 0.527 µM; in the assay on NCI-H226 lung, 40.2 µM. For the same molecule, the TGI in the assay on MCF7 breast is more than 100 µM; in the assay on SK-MEL-28 melanoma it was more than 100 µM; in the assay with MOLT-4 leukemia, more than 40.6 µM.
`OCCN(CO)CN(CN(CO)CCO)c1nc(N(CN(CO)CCO)CN(CO)CCO)nc(N(CN(CO)CCO)CN(CO)CCO)n1`: the GI50 in the assay on OVCAR-4 ovarian is 1.7 ng/mL; in the assay with NCI-H23 lung, 1.57 ng/mL; with DU-145 prostate, 1.9 ng/mL; in the assay on SNB-75 CNS, 0.723 ng/mL; in the assay with NCI-H226 lung, 1.25 ng/mL; in the assay with MCF7 breast, 0.55 ng/mL. Besides, the GI50 in the assay with SK-MEL-28 melanoma is 1.05 ng/mL; in the assay on MOLT-4 leukemia, 1.51 ng/mL; in the assay on HOP-92 NSCLC, 1.56 ng/mL. Moreover, the TGI came to 4.8 ng/mL in the assay with OVCAR-4 ovarian; 5.24 ng/mL in the assay with NCI-H23 lung; 78.3 ng/mL in the assay on DU-145 prostate; 2.41 ng/mL with SNB-75 CNS; 2.72 ng/mL in the assay with NCI-H226 lung; 0.901 ng/mL in the assay on MCF7 breast. Also, the TGI amounted to 1.88 ng/mL in the assay with SK-MEL-28 melanoma, 4.49 ng/mL in the assay on MOLT-4 leukemia and 3.6 ng/mL in the assay with HOP-92 NSCLC.
Take `CCOC(=O)c1sc(=S)c2c(C(=O)c3ccccc3)c(C(=O)c3ccccc3)sc2c1C(=O)OCC`: the GI50 with HCT-116 colon was 4.16 µM; with OVCAR-4 ovarian it was 9.58 µM; in the assay on DU-145 prostate, 4.07 µM; in the assay on SNB-75 CNS, 22.6 µM; in the assay on NCI-H226 lung, 6.68 µM; in the assay with MCF7 breast it was 3.74 µM. The values for the GI50 with SK-MEL-28 melanoma, with MOLT-4 leukemia and with HOP-92 NSCLC were 25.3 µM, 3.58 µM and 4.74 µM, respectively. For the same molecule, the TGI was more than 100 µM in the assay with HCT-116 colon; more than 100 µM in the assay with OVCAR-4 ovarian; more than 100 µM in the assay with DU-145 prostate; more than 100 µM in the assay on SNB-75 CNS; more than 100 µM in the assay on NCI-H226 lung; 26.6 µM in the assay on MCF7 breast. Further, the TGI in the assay with SK-MEL-28 melanoma is more than 100 µM; in the assay with MOLT-4 leukemia, more than 100 µM; in the assay with HOP-92 NSCLC it was 90.1 µM.
For `COc1ccc(Cl)cc1N1C(=O)C(Cl)=C(Nc2cccc(O)c2)C1=O`, the GI50 with HCT-116 colon was 11.8 µM; in the assay with OVCAR-4 ovarian, 16.7 µM; with NCI-H23 lung it was 16.6 µM; with DU-145 prostate it was 21.8 µM; in the assay with MCF7 breast, 19.2 µM; with SK-MEL-28 melanoma it was 24.4 µM. Besides, the GI50 in the assay with MOLT-4 leukemia was 15.4 µM. Moreover, the TGI is 24.9 µM in the assay on HCT-116 colon; 40 µM with OVCAR-4 ovarian; 41.4 µM with NCI-H23 lung; more than 100 µM in the assay with DU-145 prostate; 41.5 µM with MCF7 breast; 83.8 µM in the assay with SK-MEL-28 melanoma. The same molecule yielded a TGI in the assay with MOLT-4 leukemia of 49.4 µM.
